Holding throughout (format): in vivo
Assay [1] relates to Echinochloa crus-galli. Briefly: Herbicidal effect test by treatment of stem and leaf in dry field farming (Test Example 4). To be noted: 120 g/10 a, stem and leaf treatment seven days after seeding, 14 days after treatment. From the text:
(§1) Herbicidal Rate (%)={1−(Average Dry Weight (g) of Plant of Treated Area)/(Average Dry Weight (g) of Plant of Untreated Area)}×100 [Math. 1] Pots with a size of 36 cm^2 were filled with a dry field farming soil (alluvium). The soil of the top layer of 1 cm and seeds of weeds, namely southern crabgrass, Echinochloa crus-galli, Chenopodium album and Amaranthus viridis, 20 seeds each, were evenly mixed, and the top layer was gently pressed. Emulsions prepared using the compounds in Table 6 below according to Formulation Example 5 were diluted with water seven days after seeding, and the water-diluted agent solutions were sprayed to the soil surfaces at a ratio of 100 liters per 10 ares. A converted amount of the applied active ingredient corresponded to 120 g per 10 ares. The herbicidal effects were evaluated by the same standard as that in Test Example 1, 14 days after the treatment with the agents. In this regard, the compound numbers in Table 6 are the same as those in Table 1 and Table 2 above.

In assay [2] the test system is Amaranthus viridis. Described as above. The conditions noted are these: 120 g/10 a, stem and leaf treatment seven days after seeding, 14 days after treatment.
Description: as §1

Assay [3] has as its system Chenopodium album. Described as above. To be noted: 120 g/10 a, stem and leaf treatment seven days after seeding, 14 days after treatment.
Description: as §1

The subject of assay [4] is southern crabgrass. The description is as above. To be noted: 120 g/10 a, stem and leaf treatment seven days after seeding, 14 days after treatment.
Description: as §1

Assay [5] deals with Echinochloa crus-galli. Briefly: Herbicidal effect test by treatment of dry field farming soil (Test Example 3). To be noted: 120 g/10 a, sprayed one day after seeding, 14 days after treatment.
Description: as §1, with “Table 5” for “Table 6”, “water one day” for “water seven days”

Assay [6] concerns Amaranthus viridis. The description is as above. The conditions noted are these: 120 g/10 a, sprayed one day after seeding, 14 days after treatment.
Description: as §1, with “Table 5” for “Table 6”, “water one day” for “water seven days”

In assay [7] the test system is Chenopodium album. The description is as above. The conditions noted are these: 120 g/10 a, sprayed one day after seeding, 14 days after treatment.
Description: as §1, with “Table 5” for “Table 6”, “water one day” for “water seven days”

Assay [8] relates to southern crabgrass. Described as above. To be noted: 120 g/10 a, sprayed one day after seeding, 14 days after treatment.
Description: as §1, with “Table 5” for “Table 6”, “water one day” for “water seven days”

Assay [9] has as its system Echinochloa crus-galli. Briefly: Herbicidal effect test by treatment during growing period in paddy rice cultivation (Test Example 2). The conditions noted are these: 120 g/10 a, treated seven days after seeding, 14 days after treatment. From the text:
(§2) Herbicidal Rate (%)={1−(Average Dry Weight (g) of Plant of Treated Area)/(Average Dry Weight (g) of Plant of Untreated Area)}×100 [Math. 1]
(§3) Wagner pots with an area of 1/10000 ares were filled with a paddy soil, and a compound fertilizer (N:P:K=17:17:17) was mixed after addition of water, followed by soil puddling. Then, Echinochloa crus-galli, broad leaf weeds (Lindernia pyxidaria and Monochoria vaginalis) and Scirpus juncoides, 30 seeds each, were sown in a depth of 0 to 1 cm. Water was poured immediately after seeding, and the water depth was kept at about 3 cm. A subsequent management was conducted in a glass greenhouse. Emulsions prepared using the compounds in Table 4 below according to Formulation Example 5 were diluted with water seven days after seeding, and a certain amount of the water-diluted agent solutions were dropped. A converted amount of the applied active ingredient corresponded to 120 g per 10 ares. The test was conducted in a double system per one agent solution concentration area, and the herbicidal rates (%) were determined by the equation (Math. 1) 14 days after the treatment with the agents. In this regard, the compound numbers in Table 4 are the same as those in Table 1 and Table 2 above.

The test system of assay [10] is Lindernia pyxidaria. Described as above. The conditions noted are these: 120 g/10 a, treated seven days after seeding, 14 days after treatment.
Description: as §2, §3

The subject of assay [11] is Scirpus juncoides. The description is as above. The conditions noted are these: 120 g/10 a, treated seven days after seeding, 14 days after treatment.
Description: as §2, §3

The subject of assay [12] is Monochoria vaginalis. The assay is described as above. The conditions noted are these: 120 g/10 a, treated seven days after seeding, 14 days after treatment.
Description: as §2, §3

The subject of assay [13] is Echinochloa crus-galli. Kind of assay: Herbicidal effect test by treatment of rice paddy soil (Test Example 1). To be noted: 120 g/10 a, treated immediately after seeding, 14 days after treatment. On the procedure:
(§4) Wagner pots with an area of 1/10000 ares were filled with a paddy soil, and a compound fertilizer (N:P:K=17:17:17) was mixed after water was added, followed by soil puddling. Then, Echinochloa crus-galli, broad leaf weeds (Lindernia pyxidaria and Monochoria vaginalis) and Scirpus juncoides, 30 seeds each, were sown in a depth of 0 to 1 cm. Water was poured immediately after seeding, and the water depth was kept at about 3 cm. A subsequent management was conducted in a glass greenhouse. Immediately after that, emulsions prepared using the compounds in Table 3 below according to Formulation Example 5 were diluted with water, and a certain amount of the water-diluted agent solutions were dropped. A converted amount of the applied active ingredient corresponded to 120 g per 10 ares.
(§5) This test was conducted in a double system per one agent solution concentration area, and the herbicidal rates (%) were determined by the following equation (Math. 1) 14 days after the treatment with the agents.
as §2

In assay [14] the test system is Lindernia pyxidaria. The description is as above. The conditions noted are these: 120 g/10 a, treated immediately after seeding, 14 days after treatment. On the procedure: as §4, §5, §2
Assay [15] concerns Scirpus juncoides. The description is as above. To be noted: 120 g/10 a, treated immediately after seeding, 14 days after treatment. On the procedure: as §4, §5, §2
In assay [16] the test system is Monochoria vaginalis. The assay is described as above. To be noted: 120 g/10 a, treated immediately after seeding, 14 days after treatment. On the procedure: as §4, §5, §2

Regarding `COC1CCCC1n1oc(=O)c(Cc2ccccc2N(C(=O)CC(C)C)S(=O)(=O)C(F)(F)F)c1C` (stereo not shown) [Compound 119], the “Herbicidal rate, Echinochloa crus-galli” value in assay [1] came to 90%; in assay [5], 90%; in [9], 100%; in assay [13] it was 100%. In addition, the “Herbicidal rate, Amaranthus viridis” value in [2] is on record as 90%; in [6], 60%. Also, the figures for the “Herbicidal rate, Chenopodium album” value in [3] and in [7] were 90% and 60%, respectively. For the same compound, the “Herbicidal rate, southern crabgrass” value in assay [4] was 80%; in assay [8], 90%. Moreover, the “Herbicidal rate, Lindernia pyxidaria” value in assay [10] was found to be 80%; in assay [14], 100%. Further, the “Herbicidal rate, Scirpus juncoides” value in assay [11] worked out at 90%; in assay [15], 100%. Besides, the results for the “Herbicidal rate, Monochoria vaginalis” value in assay [12] and in [16] were 90% and 100%, respectively.
Consider `COC1CCCC1n1oc(=O)c(Cc2ccccc2N(C(=O)c2ccc(Cl)cc2)S(=O)(=O)C(F)(F)F)c1C` (stereo not shown) [Compound 147], for which the “Herbicidal rate, Echinochloa crus-galli” value is 90% in assay [1], 90% in [5], 100% in [9] and 100% in assay [13]. Moreover, the “Herbicidal rate, Amaranthus viridis” value in assay [2] amounted to 90%; in assay [6], 60%. The “Herbicidal rate, Chenopodium album” value in assay [3] is reported as 90%; in assay [7] it was 60%. For the same compound, the “Herbicidal rate, southern crabgrass” value came out at 80% in assay [4] and 90% in assay [8]. Further, the “Herbicidal rate, Lindernia pyxidaria” value was 80% in assay [10] and 100% in [14]. Besides, the “Herbicidal rate, Scirpus juncoides” value was found to be 90% in assay [11] and 100% in [15]. The “Herbicidal rate, Monochoria vaginalis” value in assay [12] is recorded as 90%; in [16] it was 100%.
In the case of `CCOC(=O)N(c1ccccc1Cc1c(C)n(C2CCCCC2OC)oc1=O)S(=O)(=O)C(F)(F)F` (stereo not shown) [Compound 190, ethyl N-[2-[[(2-methoxycyclohexyl)-3-methyl-5-oxoisoxazol-4-yl]methyl]phenyl]-N-(trifluoromethylsulfonyl)carbamate], the “Herbicidal rate, Echinochloa crus-galli” value in [1] is 90%; in [5], 90%; in assay [9], 100%; in assay [13], 100%. Also, the “Herbicidal rate, Amaranthus viridis” value in assay [2] and in assay [6] was 90% in each case. The “Herbicidal rate, Chenopodium album” value in [3] is given as 90%; in assay [7], 60%. The “Herbicidal rate, southern crabgrass” value in assay [4] and in assay [8] was 90% in each case. Besides, the entries for the “Herbicidal rate, Lindernia pyxidaria” value in assay [10] and in [14] were 80% and 100%, respectively. Moreover, the results for the “Herbicidal rate, Scirpus juncoides” value in assay [11] and in assay [15] were 90% and 100%, respectively. The results for the “Herbicidal rate, Monochoria vaginalis” value in assay [12] and in [16] were 90% and 100%, respectively.
For `CCCOC(=O)N(c1ccccc1Cc1c(C)n(C2CCCC2OC)oc1=O)S(=O)(=O)C(F)(F)F` (stereo not shown) [Compound 200], the “Herbicidal rate, Echinochloa crus-galli” value in assay [1] was found to be 90%; in assay [5], 90%; in [9] it was 100%; in assay [13], 100%. In addition, the “Herbicidal rate, Amaranthus viridis” value came out at 90% in assay [2] and 60% in assay [6]. The “Herbicidal rate, Chenopodium album” value in [3] was found to be 90%; in [7], 60%. In addition, the “Herbicidal rate, southern crabgrass” value in [4] was determined as 80%; in [8], 90%. Further, the figures for the “Herbicidal rate, Lindernia pyxidaria” value in assay [10] and in assay [14] were 80% and 100%, respectively. The “Herbicidal rate, Scirpus juncoides” value in assay [11] turned out to be 90%; in [15], 100%. For the same compound, the figures for the “Herbicidal rate, Monochoria vaginalis” value in assay [12] and in assay [16] were 90% and 100%, respectively.

The values are drawn from patent US20210309619A1, “ISOXAZOLIN-5-ONE DERIVATIVES AND HERBICIDES CONTAINING THE SAME AS ACTIVE INGREDIENTS” (HOKKO CHEMICAL INDUSTRY CO., LTD., priority 2018, published 2021).
